Assay results as given in patent US20220000786A1, “PHARMACEUTICAL PREPARATION” (KOWA COMPANY, LTD., priority 2018, published 2022).

Assay: Examination on stability: storage at 40° C. and 75% RH for 1 month, state of sample and composition changes
Assay type: physicochemical
Protocol: Samples 1-1 to 1-4 as shown below were prepared and stored at 40° C. and […] relative humidity (RH) for 1 month.
Pemafibrate as it was placed in a glass vessel with a lid opened, and labeled as Sample 1-1.
Aminoalkyl methacrylate copolymer E (EUDRAGIT EPO: Evonick Rohm GmbH) as it was placed in a glass vessel with a lid opened, and labeled as Sample 1-2.
Aminoalkyl methacrylate copolymer E (EUDRAGIT EPO: Evonick Rohm GmbH) was mixed with pemafibrate in a ratio of 1 part by mass to 1 part by mass of pemafibrate to obtain a mixture. The mixture was placed in a glass vessel with a lid opened, and labeled as Sample 1-3.
Aminoalkyl methacrylate copolymer E (EUDRAGIT EPO: Evonick Röhm GmbH) was mixed with pemafibrate in a ratio of 1 part by mass to 1 part by mass of pemafibrate to obtain a mixture. The mixture was taken in an amount of 0.25 g into a glass bottle (a bottle No. 2K, manufactured by ISOYA GLASS INDUSTRY) and closed with a lid, and labeled as Sample 1-4.

CC[C@@H](Oc1cccc(CN(CCCOc2ccc(OC)cc2)c2nc3ccccc3o2)c1)C(=O)O [Sample 1-1, (2R)-2-[3-([1,3-Benzoxazol-2-yl[3-(4-methoxyphenoxy)propyl]amino]methyl)phenoxy]butanoic acid]
Change of state / presence or absence of composition changes after storage (1 month, start of storage compared with 1 month): maintained the same state | State of mixture, 1 month later (after storage for 1 month, glass vessel with lid opened (1-1 to 1-3) or closed glass bottle (1-4)): White powder | State of mixture, immediately after the start of storage (start of storage, glass vessel with lid opened (1-1 to 1-3) or closed glass bottle (1-4)): White powder
